This is an account of results in patent US20130345215A1, “PYRAZOLOPYRIMIDONE AND PYRAZOLOPYRIDONE INHIBITORS OF TANKYRASE” (Genentech, Inc., priority 2012, published 2013).

The test system of this assay is Wnt stimulated TCF transcriptional activity, HEK293-TS 112 TCF reporter cell line. The assay is described as follows: Tankyrase 1 Assay (Example 119): Wnt3A-stimulated TOPbrite TCF luciferase reporter. Conditions: Compounds I-59 to I-144, procedure in Example 119 (0.5 ug/mL Wnt3A, 16 hours); read-out: TNKS1 (IC50). In kind it is cell-based. The method, then:
Inhibition of the Wnt stimulated TCF transcriptional activity by tankyrase inhibitors was determined utilizing a HEK293-TS 112 TCF reporter cell line. A Wnt-responsive luciferase reporter named TOPbrite was constructed by cloning the enhancer element of Super8xTOPFlash containing eight TCF/LEF binding sites into the pGL4.28 vector (Promega) upstream of the minimal promoter element, and selecting for hygromycin B resistance (50 μg/ml). Cells were seeded into 384-well plates in the presence of 0.5 ug/mL of Wnt3A at a density of 20,000 cells per well in 25 ul of F:12 DMEM media supplemented with 10% FBS and 2 mM Glutamax. Cells seeded without the addition of Wnt3A were used as background signal. Compounds of various concentrations were added to cells and incubated at 37 degrees with 5% CO2 for 16 hours. The assay was terminated with the addition of Promega Dual Glo kit per manufacturer's instructions. A ratio of TOPbrite Firefly Luciferase and SV40 Renillla Luciferase was calculated and the background from the neutral wells was subtracted yielding the final normalized measurement of TCF transcriptional activity. Compound IC50s were determined by four-parameter curve fitting using GeneData software.
For orientation: In a reporter assay the amount or activity of a reporter protein is the signal.

As usually defined, the IC50 is the concentration at which inhibition is half-maximal. Regarding `Cn1ncc2c(=O)[nH]c(N3CCC(Cc4ncccn4)C3)nc21` (centres unmarked) [Compound I-133, 1-methyl-6-[3-(pyrimidin-2-ylmethyl)pyrrolidin-1-yl]-5H-pyrazolo[3 4-d]pyrimidin-4-one], the IC50 was 0.337 µM. The value for `Cn1ncc2c(=O)[nH]c(N3CCC(C)(c4ccn(CCO)n4)CC3)nc21` [Compound I-89, 6-[4-[1-(2-hydroxyethyl)pyrazol-3-yl]-4-methyl-1-piperidyl]-1-methyl-5H-pyrazolo[3 4-d]pyrimidin-4-one] was 0.0218 µM. As for `COCCOc1cc(F)c(N2CCN(c3nc4c(cnn4CC(O)CO)c(=O)[nH]3)CC2)c(F)c1` (centres unmarked) [Compound I-113, 6-[4-[2 6-difluoro-4-(2-methoxyethoxy)phenyl]piperazin-1-yl]-1-(2 3-dihydroxypropyl)-5H-pyrazolo[3 4-d]pyrimidin-4-one], the IC50 was 0.09 µM. Turning to `Cn1cncc1C1CCN(c2nc3c(cnn3C)c(=O)[nH]2)C1` (centres unmarked) [Compound I-114, 1-methyl-6-[3-(3-methylimidazol-4-yl)pyrrolidin-1-yl]-5H-pyrazolo[3 4-d]pyrimidin-4-one], the IC50 amounted to 0.0903 µM. As for `COCCOc1cc(F)c(N2CCN(c3nc4c(cnn4CCO)c(=O)[nH]3)CC2)c(F)c1` [Compound I-94, 6-[4-[2 6-difluoro-4-(2-methoxyethoxy)phenyl]piperazin-1-yl]-1-(2-hydroxyethyl)-5H-pyrazolo[3 4-d]pyrimidin-4-one], the IC50 came to 0.264 µM.

Turning to `Cn1ncc2c(=O)[nH]c(N3CCN(C4CCCCC4)CC3)nc21` [Compound I-118, 6-(4-cyclohexylpiperazin-1-yl)-1-methyl-5H-pyrazolo[3 4-d]pyrimidin-4-one], the IC50 turned out to be 0.122 µM. Turning to `Cn1ncc2c(=O)[nH]c(N3CCN(c4c(F)cc(OCCN5CCOCC5)cc4F)CC3)nc21` [Compound I-74, 6-[4-[2 6-difluoro-4-(2-morpholinoethoxy)phenyl]piperazin-1-yl]-1-methyl-5H-pyrazolo[3 4-d]pyrimidin-4-one], the IC50 was found to be 0.0089 µM. As for `Cn1ncc2c(=O)[nH]c(N3CCC(c4n[nH]c5ncccc45)CC3)nc21` [Compound I-97, 1-methyl-6-[4-(1H-pyrazolo[3 4-b]pyridin-3-yl)-1-piperidyl]-5H-pyrazolo[3 4-d]pyrimidin-4-one], the IC50 came out at 0.0319 µM. Consider `Cn1ncc2c(=O)[nH]c(N3CCN(c4c(F)cc(OC5CC[S+]([O-])CC5)cc4F)CC3)nc21` (centres unmarked) [Compound I-87, 6-[4-[2 6-difluoro-4-(1-oxothian-4-yl)oxy-phenyl]piperazin-1-yl]-1-methyl-5H-pyrazolo[3 4-d]pyrimidin-4-one], for which the IC50 is 0.0187 µM. With `COCCOc1cc(F)c(N2CCN(c3nc4c(cnn4CCCO)c(=O)[nH]3)CC2)c(F)c1` [Compound I-95, 6-[4-[2 6-difluoro-4-(2-methoxyethoxy)phenyl]piperazin-1-yl]-1-(3-hydroxypropyl)-5H-pyrazolo[3 4-d]pyrimidin-4-one], the IC50 is 0.027 µM. The value for `Cn1ncc2c(=O)[nH]c(N3CCN(c4c(F)cc(OCCN5CCCCC5)cc4F)CC3)nc21` [Compound I-62, 6-{4-[2,6-Difluoro-4-(2-piperidin-1-yl-ethoxy)-phenyl]-piperazin-1-yl}-1-methyl-1,5-dihydro-pyrazolo[3,4-d]pyrimidin-4-one] was 0.005 µM; that for `Cc1noc(C2(C)CCN(c3nc4c(cnn4C)c(=O)[nH]3)CC2)n1` [Compound I-91, 1-methyl-6-[4-methyl-4-(3-methyl-1 2 4-oxadiazol-5-yl)-1-piperidyl]-5H-pyrazolo[3 4-d]pyrimidin-4-one] was 0.0241 µM; that for `Cn1ncc2c(=O)[nH]c(-c3ccc(S(=O)(=O)CC4CCCCC4)cc3)nc21` [Compound I-108, 6-[4-(cyclohexylmethylsulfonyl)phenyl]-1-methyl-5H-pyrazolo[3 4-d]pyrimidin-4-one] was 0.0684 µM.

As for “6-[4-(2-fluorophenyl)-1- piperidyl]-1-methyl-5H- pyrazolo[3 4-d]pyrimidin- 4-one [Compound I-88]”, the IC50 was 0.0193 µM. As for `Cn1ncc2c(=O)[nH]c(N3CCN(c4c(F)cc(CC(O)CO)cc4F)CC3)nc21` (centres unmarked) [Compound I-66, 6-[4-[4-(2 3-dihydroxypropyl)-2 6-difluoro-phenyl]piperazin-1-yl]-1-methyl-5H-pyrazolo[3 4-d]pyrimidin-4-one], the IC50 was 0.0066 µM. Consider `COC(C)c1cc(F)c(N2CCN(c3nc4c(cnn4C)c(=O)[nH]3)CC2)c(F)c1` (centres unmarked) [Compound I-71, 6-[4-[2 6-difluoro-4-(1-methoxyethyl)phenyl]piperazin-1-yl]-1-methyl-5H-pyrazolo[3 4-d]pyrimidin-4-one], for which the IC50 came out at 0.0083 µM. Consider `CCS(=O)(=O)c1ccc(-c2nc3c(cnn3C)c(=O)[nH]2)cc1` [Compound I-107, 6-(4-ethylsulfonylphenyl)-1-methyl-5H-pyrazolo[3 4-d]pyrimidin-4-one], for which the half-inhibitory concentration (IC50) came to 0.0681 µM. For the compound `Cn1cnnc1C1CCN(c2nc3c(cnn3C)c(=O)[nH]2)CC1` [Compound I-122, 1-methyl-6-[4-(4-methyl-1 2 4-triazol-3-yl)-1-piperidyl]-5H-pyrazolo[3 4-d]pyrimidin-4-one], the IC50 came out at 0.163 µM. Take `Cn1ncc2c(=O)[nH]c(N3CCN(c4c(F)cc(C(O)CO)cc4F)CC3)nc21` (centres unmarked) [Compound I-63, 6-[4-[4-(1 2-dihydroxyethyl)-2 6-difluoro-phenyl]piperazin-1-yl]-1-methyl-5H-pyrazolo[3 4-d]pyrimidin-4-one]: the IC50 amounted to 0.0053 µM.

Turning to `COCCO[C@H]1CC[C@@H](N2CCN(c3nc4c(cnn4C)c(=O)[nH]3)CC2)CC1` [Compound I-136, 6-[4-[4-(2-methoxyethoxy)cyclohexyl]piperazin-1-yl]-1-methyl-5H-pyrazolo[3 4-d]pyrimidin-4-one], the IC50 was determined as 0.468 µM. The value for `Cn1ncc2c(=O)[nH]c(N3CCN(c4c(F)cc(OCCOP(=O)(O)O)cc4F)CC3)nc21` [Compound I-75, 2-[3 5-difluoro-4-[4-(1-methyl-4-oxo-5H-pyrazolo[3 4-d]pyrimidin-6-yl)piperazin-1-yl]phenoxy]ethyl dihydrogen phosphate] was 0.0096 µM; that for `Cn1ncc2c(=O)[nH]c(N3CCN(c4c(F)cc(OCC5C[S+]([O-])C5)cc4F)CC3)nc21` (centres unmarked) [Compound I-72, 6-[4-[2 6-difluoro-4-[(1-oxothietan-3-yl)methoxy]phenyl]piperazin-1-yl]-1-methyl-5H-pyrazolo[3 4-d]pyrimidin-4-one] was 0.0086 µM; that for `Cn1ncc2c(=O)[nH]c(N3CCC(c4nc(-c5cnccn5)no4)CC3)nc21` [Compound I-106, 1-methyl-6-[4-(3-pyrazin-2-yl-1 2 4-oxadiazol-5-yl)-1-piperidyl]-5H-pyrazolo[3 4-d]pyrimidin-4-one] was 0.0641 µM. The value for `Cn1ncc2c(=O)[nH]c(N3CCN(c4c(F)cc(OC5CCOCC5)cc4F)CC3)nc21` [Compound I-76, 6-[4-(2 6-difluoro-4-tetrahydropyran-4-yloxy-phenyl)piperazin-1-yl]-1-methyl-5H-pyrazolo[3 4-d]pyrimidin-4-one] was 0.0111 µM; that for `Cn1ncc2c(=O)[nH]c(N3CCC(c4[nH]ncc4S(C)(=O)=O)CC3)nc21` [Compound I-81, 1-methyl-6-[4-(4-methylsulfonyl-1H-pyrazol-5-yl)-1-piperidyl]-5H-pyrazolo[3 4-d]pyrimidin-4-one] was 0.0143 µM.

Regarding “6-[4-(3-fluorophenyl)-1- piperidyl]-1-methyl-5H- pyrazolo[3 4-d]pyrimidin- 4-one [Compound I-84]”, the IC50 turned out to be 0.017 µM. In the case of `Cn1ncc2c(=O)[nH]c(N3CCC(c4ccncc4)CC3)nc21` [Compound I-109, 1-methyl-6-[4-(4-pyridyl)-1-piperidyl)-5H-pyrazolo[3 4-d]pyrimidin-4-one], the IC50 stood at 0.0806 µM. In the case of `Cn1ncc2c(=O)[nH]c(N3CCN(c4c(F)cc(OC5COC5)cc4F)CC3)nc21` [Compound I-85, 6-[4-[2 6-difluoro-4-(oxetan-3-yloxy)phenyl]piperazin-1-yl]-1-methyl-5H-pyrazolo[3 4-d]pyrimidin-4-one], the IC50 is 0.0171 µM. For the compound `O=c1[nH]c(N2CCN(c3c(F)cccc3F)CC2)nc2[nH]ncc12` [Compound I-80, 6-[4-(2 6-difluorophenyl)piperazin-1-yl]-1 5-dihydropyrazolo[3 4-d]pyrimidin-4-one], the IC50 is 0.014 µM. The value for `Cn1ncc2c(=O)[nH]c(N3CCN([C@H]4CC[C@H](O)CC4)CC3)nc21` [Compound I-120, 6-[4-(4-hydroxycyclohexyl)piperazin-1-yl]-1-methyl-5H-pyrazolo[3 4-d]pyrimidin-4-one] was 0.153 µM. On to `Cn1cc(N2CCN(c3nc4c(cnn4C)c(=O)[nH]3)CC2)cn1` [Compound I-105, 1-methyl-6-[4-(1-methylpyrazol-4-yl)piperazin-1-yl]-5H-pyrazolo[3 4-d]pyrimidin-4-one], for which the IC50 stood at 0.0639 µM. On to `COCCOc1cc(F)c(N2CCN(c3nc4c(cnn4C4CCS(=O)(=O)CC4)c(=O)[nH]3)CC2)c(F)c1` [Compound I-128, 6-[4-[2 6-difluoro-4-(2-methoxyethoxy)phenyl]piperazin-1-yl]-1-(1 1-dioxothian-4-yl)-5H-pyrazolo[3 4-d]pyrimidin-4-one], for which the IC50 came to 0.268 µM.
